Data taken from patent publication US20260049085A1, “CYCLIC COMPOUNDS AND METHODS OF USING SAME” (SCHRÖDINGER, INC., priority 2022, published 2026).

Molecular target: T1, full-length MALT1 protein His-MALT1(1-824) (Homo sapiens, UniProt Q9UDY8)
T1 construct: full-length MALT1 protein His-MALT1(1-824); His (N); made in house; host or cells: baculovirus-infected insect cells
T1 sequence (Q9UDY8 1-824): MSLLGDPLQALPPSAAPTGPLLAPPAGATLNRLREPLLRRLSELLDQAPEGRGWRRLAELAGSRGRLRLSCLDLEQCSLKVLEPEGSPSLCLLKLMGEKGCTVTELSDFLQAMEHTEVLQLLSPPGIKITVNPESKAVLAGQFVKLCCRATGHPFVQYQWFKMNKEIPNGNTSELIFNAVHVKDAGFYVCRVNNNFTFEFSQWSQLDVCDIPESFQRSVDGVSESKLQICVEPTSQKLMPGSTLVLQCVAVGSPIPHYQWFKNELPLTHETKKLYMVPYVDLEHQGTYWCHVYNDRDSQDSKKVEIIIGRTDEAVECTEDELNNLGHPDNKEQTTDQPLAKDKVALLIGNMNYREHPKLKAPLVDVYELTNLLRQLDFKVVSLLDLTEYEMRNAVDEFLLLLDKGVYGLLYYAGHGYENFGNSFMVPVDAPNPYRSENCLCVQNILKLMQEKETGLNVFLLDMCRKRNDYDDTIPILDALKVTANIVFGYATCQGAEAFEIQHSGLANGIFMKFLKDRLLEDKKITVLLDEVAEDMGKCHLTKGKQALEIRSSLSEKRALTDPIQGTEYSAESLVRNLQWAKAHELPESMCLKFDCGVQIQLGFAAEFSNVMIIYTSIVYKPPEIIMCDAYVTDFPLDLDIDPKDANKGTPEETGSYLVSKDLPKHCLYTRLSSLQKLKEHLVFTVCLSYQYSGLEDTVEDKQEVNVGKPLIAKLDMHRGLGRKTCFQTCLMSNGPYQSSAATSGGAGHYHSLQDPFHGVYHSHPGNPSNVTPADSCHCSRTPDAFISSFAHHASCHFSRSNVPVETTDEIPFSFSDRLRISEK
Assay: MALT1 protease assay (Ac-LRSR-AMC tetrapeptide substrate, fluorescence)
Type: biochemical
Details: 1 nM MALT1, 25 μM Ac-LRSR-AMC, 2 h pre-incubation, 8 hr incubation at RT
Description: MALT1 protease activity was assessed in an in vitro assay using a tetrapeptide as substrate and full-length MALT1 protein His-MALT1(1-824) purified from baculovirus-infected insect cells.
The final assay buffer includes 1 nM of MALT1 full-length protein, 25 μM Ac-LRSR-AMC substrate, 50 mM Tris pH 7.5, 600 mM Sodium Citrate, 1 mM DTT, 1 mM EDTA, and 0.05% BSA in 384-well plate format using black microtiter square well plates (Optiplate 384-F, Perkin Elmer).
Test compounds were dissolved in 100% DMSO stock of 10 mM, with final DMSO concentration of 0.1%. Test compounds were pre-incubated with MALT1 protein for 2 h at room temperature. Substrate was added after the pre-incubation and fluorescence signal was measured using Envision at excitation 355 nm and emission 460 nm after 8 hr incubation at RT.
The fluorescence units were transformed to percentage of remaining activity by using the high control (HC, median of fluorescence signal from wells containing MALT1 protein, substrate, and DMSO) and low control (LC, median of fluorescence signal from wells with substrate only) with the formula below: […]
IC50 and Hill coefficients were obtained using Graph Pad Prism (Graph Pad software, Inc, USA) with non-linear regression analysis.

IC50, 100 to 1000 nM:
Cn1cc([C@]2(C)C[C@H](C(=O)Nc3cnc(-n4nccn4)c(Cl)c3)c3cnc4cc(F)nn4c32)cn1 (racemic) [Example 3, (cis)-N-(5-chloro-6-(2H-1,2,3-triazol-2-yl)pyridin-3-yl)-2-fluoro-8-methyl-8-(1-methyl-1H-pyrazol-4-yl)-7,8-dihydro-6H-cyclopenta[e]pyrazolo[1,5-a]pyrimidine-6-carboxamide]
CC(F)(F)n1ccc([C@]2(C)C[C@H](C(=O)Nc3cnc(-c4ncccn4)c(Cl)c3)c3cnc4cc(F)nn4c32)n1 (racemic) [Example 170, (cis)-N-(5-chloro-6-(pyrimidin-2-yl)pyridin-3-yl)-8-(1-(1,1-difluoroethyl)-1H-pyrazol-3-yl)-2-fluoro-8-methyl-7,8-dihydro-6H-cyclopenta[e]pyrazolo[1,5-a]pyrimidine-6-carboxamide]
Cc1cc2ncc3c(n2n1)[C@](C)(c1ccn(C(F)F)n1)C[C@@H]3C(=O)Nc1cnc(-c2ncccn2)c(C(F)(F)F)c1 (racemic) [Example 196, (cis)-8-(1-(difluoromethyl)-1H-pyrazol-3-yl)-2,8-dimethyl-N-(6-(pyrimidin-2-yl)-5-(trifluoromethyl)pyridin-3-yl)-7,8-dihydro-6H-cyclopenta[e]pyrazolo[1,5-a]pyrimidine-6-carboxamide]
Cn1cc([C@@]2(C)C[C@@H](C(=O)Nc3cnc(-n4nccn4)c(C(F)(F)F)c3)c3cnc4cc(F)nn4c32)cn1 (single isomer, unassigned) [Example 6]
Cn1cc([C@]2(C)C[C@H](C(=O)Nc3cnc(-n4nccn4)c(C(F)(F)F)c3)c3cnc4cc(F)nn4c32)cn1 (single isomer, unassigned) [Example 7]
Cn1cc([C@]2(C)C[C@H](C(=O)Nc3cnc(-n4nccn4)c(Cl)c3)c3cnc4cc(Cl)nn4c32)cn1 (single isomer, unassigned) [Example 10]
Cn1cc([C@@]2(C)C[C@@H](C(=O)Nc3cnc(-n4nccn4)c(Cl)c3)c3cnc4cc(Cl)nn4c32)cn1 (single isomer, unassigned) [Example 11]
Cn1cc([C@]2(C)C[C@H](C(=O)Nc3cnc(-n4nccn4)c(Cl)c3)c3cnc4c(F)c(F)nn4c32)cn1 (single isomer, unassigned) [Example 14]
Cn1cc([C@@]2(C)C[C@@H](C(=O)Nc3cnc(-n4nccn4)c(Cl)c3)c3cnc4c(F)c(F)nn4c32)cn1 (single isomer, unassigned) [Example 15]
Cn1cc([C@@]2(C)C[C@H](C(=O)Nc3cnc(-n4nccn4)c(Cl)c3)c3cnc4c(Cl)c(F)nn4c32)cn1 (single isomer, unassigned) [Example 16]
CCn1cc([C@@]2(C)C[C@@H](C(=O)Nc3cnc(-n4nccn4)c(Cl)c3)c3cnc4cc(F)nn4c32)cn1 (single isomer, unassigned) [Example 23]
Cn1ccc([C@]2(C)C[C@H](C(=O)Nc3cnc(-n4nccn4)c(Cl)c3)c3cnc4cc(F)nn4c32)n1 (single isomer, unassigned) [Example 34]
Cn1ccc([C@@]2(C)C[C@@H](C(=O)Nc3cnc(-n4nccn4)c(Cl)c3)c3cnc4cc(F)nn4c32)n1 (single isomer, unassigned) [Example 35]

IC50, ≥ 1000 nM:
Cn1cc([C@]2(C)C[C@@H](C(=O)Nc3cnc(-n4nccn4)c(Cl)c3)c3cnc4cc(F)nn4c32)cn1 (single isomer, unassigned) [Example 2]
Cn1cc([C@]2(C)C[C@@H](C(=O)Nc3cnc(-n4nccn4)c(C(F)(F)F)c3)c3cnc4cc(F)nn4c32)cn1 (single isomer, unassigned) [Example 4]
Cn1cc([C@]2(C)C[C@@H](C(=O)Nc3cnc(-n4nccn4)c(Cl)c3)c3cnc4cc(Cl)nn4c32)cn1 (single isomer, unassigned) [Example 9]
Cn1cc([C@]2(C)C[C@@H](C(=O)Nc3cnc(-n4nccn4)c(Cl)c3)c3cnc4c(F)c(F)nn4c32)cn1 (single isomer, unassigned) [Example 13]
Cn1cc([C@]2(C)C[C@@H](C(=O)Nc3cnc(-n4nccn4)c(Cl)c3)c3cnc4c(Cl)c(F)nn4c32)cn1 (single isomer, unassigned) [Example 17]
Cn1cc([C@]2(C)C[C@H](C(=O)Nc3cnc(-n4nccn4)c(Cl)c3)c3cnc4c(Cl)c(F)nn4c32)cn1 (single isomer, unassigned) [Example 18, cis-3-chloro-N-(5-chloro-6-(2H-1,2,3-triazol-2-yl)pyridin-3-yl)-2-fluoro-8-methyl-8-(1-methyl-1H-pyrazol-4-yl)-7,8-dihydro-6H-cyclopenta[e]pyrazolo[1,5-a]pyrimidine-6-carboxamide]
Cn1cc([C@@]2(C)C[C@@H](C(=O)Nc3cnc(-n4nccn4)c(Cl)c3)c3cnc4c(Cl)c(F)nn4c32)cn1 (single isomer, unassigned) [Example 19, cis-3-chloro-N-(5-chloro-6-(2H-1,2,3-triazol-2-yl)pyridin-3-yl)-2-fluoro-8-methyl-8-(1-methyl-1H-pyrazol-4-yl)-7,8-dihydro-6H-cyclopenta[e]pyrazolo[1,5-a]pyrimidine-6-carboxamide]
CCn1cc([C@]2(C)C[C@@H](C(=O)Nc3cnc(-n4nccn4)c(Cl)c3)c3cnc4cc(F)nn4c32)cn1 (single isomer, unassigned) [Example 21]
C[C@@]1(c2cnn(C(F)F)c2)C[C@@H](C(=O)Nc2cnc(-n3nccn3)c(Cl)c2)c2cnc3cc(F)nn3c21 (single isomer, unassigned) [Example 25]
C[C@]1(c2cnn(C(F)F)c2)C[C@@H](C(=O)Nc2cnc(-n3nccn3)c(Cl)c2)c2cnc3cc(F)nn3c21 (single isomer, unassigned) [Example 27]
C[C@@]1(c2cnn(C3CC3)c2)C[C@@H](C(=O)Nc2cnc(-n3nccn3)c(Cl)c2)c2cnc3cc(F)nn3c21 (single isomer, unassigned) [Example 29]
C[C@]1(c2cnn(C3CC3)c2)C[C@@H](C(=O)Nc2cnc(-n3nccn3)c(Cl)c2)c2cnc3cc(F)nn3c21 (single isomer, unassigned) [Example 31]
Cn1ccc([C@]2(C)C[C@@H](C(=O)Nc3cnc(-n4nccn4)c(Cl)c3)c3cnc4cc(F)nn4c32)n1 (single isomer, unassigned) [Example 33]
C[C@@]1(c2cncs2)C[C@@H](C(=O)Nc2cnc(-n3nccn3)c(Cl)c2)c2cnc3cc(F)nn3c21 (single isomer, unassigned) [Example 37]

IC50, 10 to 100 nM:
Cc1cc2ncc3c(n2n1)[C@@](C)(c1ccn(C(F)F)n1)C[C@@H]3C(=O)Nc1cnc(-c2ncccn2)c(C(F)(F)F)c1 (racemic) [Example 195, (tras)-8-(1-(difluoromethyl)-1H-pyrazol-3-yl)-2,8-dimethyl-N-(6-(pyrimidin-2-yl)-5-(trifluoromethyl)pyridin-3-yl)-7,8-dihydro-6H-cyclopenta[e]pyrazolo[1,5-a]pyrimidine-6-carboxamide]
CCn1cc([C@]2(C)C[C@H](C(=O)Nc3cnc(-n4nccn4)c(Cl)c3)c3cnc4cc(F)nn4c32)cn1 (single isomer, unassigned) [Example 22]
C[C@@]1(c2cnn(C(F)F)c2)C[C@H](C(=O)Nc2cnc(-n3nccn3)c(Cl)c2)c2cnc3cc(F)nn3c21 (single isomer, unassigned) [Example 26]
C[C@@]1(c2cnn(C3CC3)c2)C[C@H](C(=O)Nc2cnc(-n3nccn3)c(Cl)c2)c2cnc3cc(F)nn3c21 (single isomer, unassigned) [Example 30]

IC50, < 10 nM:
C[C@]1(c2cncs2)C[C@H](C(=O)Nc2cnc(-n3nccn3)c(Cl)c2)c2cnc3cc(F)nn3c21 (single isomer, unassigned) [Example 36]
